Patent publication US7514433B2, “1H-indole-6-yl-piperazin-1-yl-methanone derivatives” (Hoffmann-La Roche Inc., priority 2006, dated 2009)
pKi: −log10 of the molar value. Structures can show the parent of a compound that is named as a salt.

Target: T1, histamine 3 receptor (H3R) (Homo sapiens, UniProt Q9Y5N1)
T1 construct: expressed in transfected cells; host or cells: CHO cells (HR3-CHO cell line), membranes
Assay: Binding assay with 3H-(R)α-methylhistamine (competition binding, membranes of the human HR3-CHO cell line)
Details: competition against 3H(R)α-methylhistamine (1 nM), Ki calculated from IC50 by the Cheng-Prusoff equation
Method: Binding assay with ^3H-(R)α-methylhistamine
Saturation binding experiments were performed using HR3-CHO membranes prepared as described in Takahashi, K, Tokita, S., Kotani, H. (2003) J. Pharmacol. Exp. Therapeutics 307, 213-218.
An appropriate amount of membrane (60 to 80 μg protein/well) was incubated with increasing concentrations of ^3H(R)α-Methylhistamine di-hydrochloride (0.10 to 10 nM). Non specific binding was determined using a 200 fold excess of cold (R)α-Methylhistamine dihydrobromide (500 nM final concentration). The incubation was carried out at room temperature (in deep-well plates shaking for three hours). The final volume in each well was 250 μl. The incubation was followed by rapid filtration on GF/B filters (pre-soaked with 100 μl of 0.5% PEI in Tris 50 mM shaking at 200 rpm for two hours). The filtration was made using a cell-harvester and the filter plates were then washed five times with ice cold washing buffer containing 0.5 M NaCl. After harvesting, the plates were dried at 55° C. for 60 min, then we added scintillation fluid (Microscint 40, 40 microl in each well) and the amount of radioactivity on the filter was determined in Packard top-counter after shaking the plates for two hours at 200 rpm at room temperature.
Binding Buffer: 50 mM Tris-HCl pH 7.4 and 5 mM MgCl2×6H2O pH 7.4.
Washing Buffer: 50 mM Tris-HCl pH 7.4 and 5 mM MgCl2×6H2O and 0.5 M NaCl pH 7.4.
Indirect measurement of affinity of H3R inverse agonists: twelve increasing concentrations (ranging from 10 μM to 0.3 nM) of the selected compounds were always tested in competition binding experiments using membrane of the human HR3-CHO cell line. […]
All compounds were tested at a single concentration in duplicate. […] Ki's were calculated from IC50 based on Cheng-Prusoff equation (Cheng, Y, Prusoff, W H (1973) Biochem Pharmacol 22, 3099-3108): Ki=IC50/[1+D/Kd] wherein D is the concentration of the radioligand and Kd is the binding constant for the radioligand binding to the receptor under the conditions used in the competition experiment.

T1 sequence (Q9Y5N1 whole entry): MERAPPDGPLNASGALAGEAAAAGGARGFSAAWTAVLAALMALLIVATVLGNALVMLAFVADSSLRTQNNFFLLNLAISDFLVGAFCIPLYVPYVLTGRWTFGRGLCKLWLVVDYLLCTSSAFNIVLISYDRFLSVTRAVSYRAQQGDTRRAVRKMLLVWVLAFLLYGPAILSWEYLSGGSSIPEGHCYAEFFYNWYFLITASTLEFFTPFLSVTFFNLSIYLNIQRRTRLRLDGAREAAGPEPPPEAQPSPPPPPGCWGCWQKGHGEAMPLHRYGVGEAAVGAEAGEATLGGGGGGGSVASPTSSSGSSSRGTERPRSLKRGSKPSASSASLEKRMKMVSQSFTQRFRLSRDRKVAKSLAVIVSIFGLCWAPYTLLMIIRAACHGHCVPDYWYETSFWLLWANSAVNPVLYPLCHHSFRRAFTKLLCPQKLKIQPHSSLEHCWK

pKi | SMILES
7.61 | CC(C)CN1CCC(c2c[nH]c3cc(C(=O)N4CCN(C(C)C)CC4)ccc23)CC1 [Example 2, [3-(1-Isobutyl-piperidin-4-yl)-1H-indol-6-yl]-(4-isopropyl-piperazin-1-yl)-methanone; hydrochloride]
7.48 | CN1CCCC1c1c[nH]c2cc(C(=O)N3CCN(C4CCCC4)CC3)ccc12 (stereo not drawn) [Example 35, (4-Cyclopentyl-piperazin-1-yl)-[3-(1-methyl-pyrrolidin-2-yl)-1H-indol-6-yl]-methanone]
7.75 | CC(C)CN1CC=C(c2cn(-c3ccc(F)cc3F)c3cc(C(=O)N4CCN(C(C)C)CC4)ccc23)CC1 [Example 54, [1-(2,4-Difluoro-phenyl)-3-(1-isobutyl-1,2,3,6-tetrahydro-pyridin-4-yl)-1H-indol-6-yl]-(4-isopropyl-piperazin-1-yl)-methanone]
